Experimental data as given in patent US20220071941A1, “THERAPIES FOR SQUAMOUS CELL CARCINOMAS” (Kura Oncology, Inc., priority 2018, published 2022).

Test system: squamous head and neck cancer with HRAS mutations
Assay: Phase II study of tipifarnib in subjects with HRAS mutant tumors (HNSCC cohort)
Assay type: in vivo, human
Procedure: A Phase II study was performed that investigated the antitumor activity, in terms of objective response rate, of tipifarnib in subjects with locally advanced, unresectable or metastatic, relapsed and/or refractory tumors that carry HRAS mutations and for whom there is no curative therapy available. Subjects were men and women over 18 years of age.
Inclusion criteria of the study were as follows: histologically or cytologically confirmed diagnosis of thyroid cancer (cohort 1) or squamous head and neck cancer (cohort 2) for which there is no curative therapy available; tumor that carries a missense HRAS mutation; subject consents to provide at least 10 unstained tumor slides for retrospective testing of HRAS gene tumor status; subject has measurable disease according to RECIST v1.1 and has relapsed or is refractory to prior therapy; at least 2 weeks since the last systemic therapy or radiotherapy regimen prior to enrolment; ECOG PS 0 or 1; acceptable liver function; acceptable renal function; and acceptable hematologic status.
Exclusion criteria of the study were as follows: prior treatment with an FTase inhibitor; history of relevant coronary heart disease or myocardial infarction within last 3 years, NYHA Grade III or greater congestive heart failure, cerebro-vascular attack within the prior year, or serious cardiac arrhythmia requiring medication except atrial fibrillation; known uncontrolled brain, leptomeningeal or epidural metastases (unless treated and well controlled for at least 4 weeks prior to Cycle 1 Day 1); controlled brain metastases that require continuous high dose corticosteroid use within 4 weeks of Day 1; non-tolerable>Grade 2 neuropathy or evidence of unstable neurological symptoms within 4 weeks first dose; major surgery, other than diagnostic surgery, within 4 weeks prior to first dose, without complete recovery; active, uncontrolled bacterial, viral, or fungal infections, requiring systemic therapy; or known infection with HIV, or an active infection with hepatitis B or hepatitis C.
The study comprised 36 participants and subjects were enrolled into two nonrandomized cohorts as follows: Cohort 1 was comprised of patients with malignant thyroid tumors with HRAS mutations; Cohort 2 was comprised of patients with squamous head and neck cancer with HRAS mutations. Patients received tipifarnib at a starting dose of 600-900 mg orally twice daily on days 1-7 and 15-21 of 28-day cycles.
The primary outcome measurement of the study was objective response rate. Additionally, progression-free survival, duration of response, and the number of subjects with adverse events and serious adverse events were also recorded as secondary outcome measures. Adverse events and serious adverse events were graded according to the NCI-CTCAE (Version 4.03).
Upon meeting the primary objective (objective response rate), the study was amended to continue enrollment of HNSCC patients (Cohort 2) in addition to patients with other SCCs (Cohort 3). These patients had tumors carrying high HRASm variant allele frequency (VAF >35% or if baseline serum albumin is >3.5 g/dL)

[1] = of the 15 HNSCC patients meeting HRASm VAF criteria

Q: Which results are given for `Cn1cncc1[C@@](N)(c1ccc(Cl)cc1)c1ccc2c(c1)c(-c1cccc(Cl)c1)cc(=O)n2C` [tipifarnib]?
A: overall response rate (15 HNSCC patients meeting HRASm VAF criteria, starting dose 600-900 mg orally twice daily on days 1-7 and 15-21 of 28-day cycles): 53%; median progression-free survival (PFS), patients experiencing SD (95% CI 1.6 to 5.4 months): 4.5 months; median progression-free survival (PFS), patients experiencing a PR (95% CI 5.3 to 19.5 months): 19 months; overall median progression-free survival (PFS) (N=15, 95% CI 4.5 to 19.5 months): 5.4 months; patients with at least 1 treatment-emergent adverse event (TEAE) (graded according to NCI-CTCAE Version 4.03): All patients; most frequently observed drug-related Grade >3 TEAEs (occurring in ≥10% patients): blood and lymphatic system disorders, gastrointestinal disorders, and renal disorders; confirmed partial responses (PR), number of patients [1]: 8; stable disease (SD), number of patients [1]: 5
